Settings: not given
O=[N+]([O-])c1ccc(Oc2ccc(C(F)(F)F)cc2Cl)cc1 gave a melting point of 68 °C. In the case of O=C(O)c1ccc(Cl)c([N+](=O)[O-])c1, the melting point is reported as 183 °C. Work on CCCCCCCOC(C)=O yielded a boiling point of 193 °C and a melting point of -50.2 °C. Work on ClCc1ccc(Cl)cc1Cl yielded a boiling point of 248 °C, a log10 vapour pressure (mmHg) of -1.49 and a melting point of -2.6 °C. With CSc1c(N)nc(N)nc1Cl the log10 Koc (L/kg) was 2.08. COC(=O)C(=O)Cl gave a boiling point of 119 °C. Work on O=Cc1cccc2c1CCOC2=O yielded a melting point of 140 °C. Work on ClCOCCl yielded a boiling point of 106 °C, a log10 vapour pressure (mmHg) of 1.47 and a melting point of -41.5 °C. With Clc1cccc(-c2ccccc2Cl)c1 the log10 Henry constant (atm·m³/mol) was -3.6. With CCCC(O)CO (stereo unspecified) the boiling point was 206 °C and the melting point was 104 °C. In the case of Cl.Cl.O=C1c2c(O)ccc(O)c2C(=O)c2c(NCCNCCO)ccc(NCCNCCO)c21, the melting point is reported as 204 °C. In the case of CCCCCCCCCC(N)=O, the melting point is reported as 108 °C. With O=C(c1ccccc1)C(Cl)Cl the boiling point was 249 °C and the melting point was 20.5 °C. O=[N+]([O-])c1ccc2ccc3cccc4ccc1c2c34 gave a melting point of 155 °C. Work on CON=C(C)c1cccc(Oc2nc(OC)cc(OC)n2)c1C(=O)OC yielded a log10 vapour pressure (mmHg) of -6.64 and a melting point of 107 °C. Nc1ccc(O)cc1 gave a boiling point of 284 °C, a log10 vapour pressure (mmHg) of -4.4 and a melting point of 188 °C. For the same compound, the ready biodegradability was “readily biodegradable”. For CCOC(=O)c1cccnc1, the boiling point was 224 °C and the melting point was 8.5 °C. In the case of CNC(=O)Oc1ccc(N(C)C)c(C)c1, the log10 Koc (L/kg) is reported as 2, the melting point is reported as 93.5 °C and the ready biodegradability is reported as “readily biodegradable”. For Cc1cc(C)cc(OCC2CNC(=O)O2)c1 (stereo unspecified), the melting point was 122 °C. In the case of O=S(=O)(O)CCN1CCN(CCS(=O)(=O)O)CC1, the ready biodegradability is reported as “not readily biodegradable”. In the case of CC(C)(c1cc(Br)c(O)c(Br)c1)c1cc(Br)c(O)c(Br)c1, the melting point is reported as 181 °C and the ready biodegradability is reported as “not readily biodegradable”. With Cc1ccc2ccccc2c1N the melting point was 32 °C. With CCOC(=O)Nc1ccc2c(c1)N(C(=O)CCN1CCOCC1)c1ccccc1S2 the melting point was 156 °C. Compound CCCCCCCCCCCCCCCCCC(CC)c1ccccc1 (stereo unspecified) has a melting point of 29.3 °C. O=C(O)c1ccccc1Oc1ccccc1 showed a boiling point of 355 °C and a melting point of 113 °C. For Cc1ccc2c(c1[N+](=O)[O-])C(=O)c1ccccc1C2=O, the melting point was 270 °C. COP(=O)(OC)SCn1c(=O)oc2cc(Cl)cnc21 showed a log10 vapour pressure (mmHg) of -7.44 and a melting point of 89 °C. Compound Cc1cccc(C)c1NC(=O)CN(CC(=O)O)CC(=O)O has a melting point of 202 °C. With CCOC(=O)C1(C(=O)OCC)CCC1 the boiling point was 224 °C. In the case of c1ccc([C@@H]2CCCNC2)cc1, the boiling point is reported as 257 °C and the melting point is reported as 14.5 °C. Work on S=C=S yielded a boiling point of 46 °C, a log10 Henry constant (atm·m³/mol) of -1.84 and a log10 Koa of 2.28. It also gave a log10 Koc (L/kg) of 2.34, a log10 vapour pressure (mmHg) of 2.56 and a melting point of -112 °C. Compound CC(=O)OC1CCC2(C)C(CCC3(C)C2C(=O)C=C2C4CC(C)(C(=O)O)CCC4(C)CCC23C)C1(C)C (stereo unspecified) has a melting point of 323 °C. For CC(C)Oc1ccc(Nc2ccccc2)cc1, the melting point was 79 °C. For CC/C=C(\C)C(=O)O, the boiling point was 214 °C and the melting point was 24.4 °C. N#CC(Cl)Cl gave a boiling point of 112 °C. Work on C[C@]12C[C@H](O)[C@H]3[C@@H](CCC4=CC(=O)CC[C@@]43C)[C@@H]1CC[C@@H]2C(=O)CO yielded a melting point of 181 °C. C1CCSCC1 showed a boiling point of 142 °C, a log10 vapour pressure (mmHg) of 0.895 and a melting point of 19 °C. For Cc1cccc[n+]1[O-], the melting point was 49 °C. OCCC1CCNCC1 gave a boiling point of 228 °C. Work on Brc1ccc(Br)s1 yielded a boiling point of 210 °C and a melting point of -6 °C. Work on COc1ccc([C@@H]2Sc3ccccc3N(CCN(C)C)C(=O)[C@@H]2OC(C)=O)cc1 yielded a melting point of 210 °C. With CC(C)CCCC(C)(C)C the boiling point was 149 °C and the melting point was -105 °C. C/C=C/C=C/C=O showed a boiling point of 174 °C and a log10 Henry constant (atm·m³/mol) of -5.01. For O=P(N1CC1)(N1CC1)N1CC1, the melting point was 41 °C. With CCCCCCCC/C=C\CCCCCCCC(=O)OCC the melting point was -13.1 °C. In the case of CC(N)Cc1ccc(O)cc1 (stereo unspecified), the melting point is reported as 126 °C. With COc1ccc(C(N)=O)cc1OC the melting point was 164 °C. Compound O=C(C(F)(F)F)C(F)(F)Cl has a boiling point of 8 °C, a log10 vapour pressure (mmHg) of 3.15 and a melting point of -133 °C. c1ccc2c(c1)CCC2 gave a boiling point of 178 °C, a log10 Henry constant (atm·m³/mol) of -3.7 and a log10 biodegradation half-life (days) of 0.778. The log10 vapour pressure (mmHg) was 0.166 and the melting point was -51.4 °C. Work on CNNC yielded a boiling point of 81 °C, a log10 vapour pressure (mmHg) of 1.84 and a melting point of -9 °C. Compound CCCCN(C)C has a boiling point of 95 °C. Compound C=C(C)[C@@H]1CC[C@]2(C)CC[C@]3(C)[C@H](CC[C@@H]4[C@@]5(C)CC[C@H](O)C(C)(C)[C@@H]5CC[C@]43C)[C@@H]12 has a melting point of 216 °C. NS(=O)(=O)c1ccc(SCCCCO)c(F)c1 showed a melting point of 104 °C. Compound CCCCCCOC(C)=O has a boiling point of 172 °C, a log10 Henry constant (atm·m³/mol) of -3.28 and a log10 Koa of 4.58. For the same compound, the log10 vapour pressure (mmHg) was 0.122 and the melting point was -80.9 °C. Nc1c(Br)cccc1Br showed a boiling point of 263 °C and a melting point of 87.5 °C. Compound CCCCCCCCCCCC has a boiling point of 216 °C, a log10 biodegradation half-life (days) of 1 and a log10 vapour pressure (mmHg) of -0.87. The melting point was -9.6 °C and the ready biodegradability was “readily biodegradable”. CCOc1ccc(NC(=O)C(C)O)cc1 (stereo unspecified) gave a melting point of 118 °C. For Clc1ccc(-c2cc(Cl)c(Cl)c(Cl)c2)cc1Cl, the log10 Koa was 10.3. For NCc1cccnc1, the boiling point was 226 °C and the melting point was -21.1 °C. In the case of O=C(O)c1c(F)cc(F)cc1F, the melting point is reported as 143 °C. Clc1cc(-c2c(Cl)cc(Cl)c(Cl)c2Cl)c(Cl)c(Cl)c1Cl gave a log10 Henry constant (atm·m³/mol) of -5. For O=c1c(Cl)c(Cl)cnn1-c1ccccc1, the log10 vapour pressure (mmHg) was -4.05 and the melting point was 162 °C. C[Si](C)(C)O[Si](C)(C)O[Si](C)(C)O[Si](C)(C)O[Si](C)(C)O[Si](C)(C)O[Si](C)(C)O[Si](C)(C)O[Si](C)(C)O[Si](C)(C)O[Si](C)(C)C gave a boiling point of 323 °C. O=C(CO)c1ccccc1 gave a melting point of 90 °C. Compound CCCCCCCC(=O)OCC has a boiling point of 208 °C, a log10 Koc (L/kg) of 3.02 and a melting point of -43.1 °C. NC(=O)Nc1ccccc1F gave a log10 Koc (L/kg) of 1.32. Compound Nc1c(C(=O)O)ccc2c1C(=O)c1ccccc1C2=O has a melting point of 296 °C. Work on CC(O)CBr (stereo unspecified) yielded a boiling point of 146 °C. Work on BrC[C@@H]1CCCO1 yielded a boiling point of 170 °C. Compound CCOOCC has a boiling point of 65 °C and a melting point of -70 °C. With CCCC(C)Cl (stereo unspecified) the boiling point was 99 °C, the log10 vapour pressure (mmHg) was 1.69 and the melting point was -80 °C. Compound N#Cc1ccc2ccccc2c1 has a boiling point of 306 °C and a melting point of 66 °C. For O=C(c1ccc(O)cc1)c1ccc(O)c(O)c1O, the ready biodegradability was “not readily biodegradable”. Work on Nc1ccc(S(=O)(=O)NCc2ccccc2)cc1 yielded a melting point of 171 °C. Nc1cc(N)cc(C(=O)O)c1 showed a melting point of 228 °C. With Clc1cc2c(Cl)c(Cl)c(Cl)c(Cl)c2c(Cl)c1Cl the log10 vapour pressure (mmHg) was -7.07. FCCCF gave a boiling point of 41.6 °C. Compound Oc1ccc(Cl)cc1Cl has a boiling point of 210 °C, a log10 Koc (L/kg) of 2.81 and a log10 vapour pressure (mmHg) of -1.05. For the same compound, the melting point was 45 °C and the ready biodegradability was “not readily biodegradable”. Brc1nccs1 showed a boiling point of 171 °C. With CCOc1ccc2nc(S)sc2c1 the melting point was 199 °C. CCc1ccccc1-n1c(C)nc2ccccc2c1=O showed a melting point of 81 °C. COC(=O)/C=C/C(C)=C\C=C\C(C)=C\C=C\C=C(C)\C=C\C=C(C)\C=C\C(=O)O showed a melting point of 198 °C. In the case of Clc1cc(Cl)c2c(c1)oc1c(Cl)cc(Cl)cc12, the log10 vapour pressure (mmHg) is reported as -7.57 and the melting point is reported as 177 °C. For Cc1ccc(Br)cc1C, the boiling point was 214 °C and the melting point was -0.2 °C. With C[C@]12CC[C@H](O)C[C@H]1CC[C@@H]1[C@@H]2C[C@@H](O)[C@]2(C)[C@@H](C3=CC(=O)OC3)CC[C@]12O the melting point was 222 °C. CCC(C(C)C)C(C)C gave a boiling point of 137 °C, a log10 vapour pressure (mmHg) of 1 and a melting point of -122 °C. With O=C[C@H](O)[C@H](O)[C@H](O)CO the melting point was 98.5 °C. For c1ccc(-c2nc3ccccc3[nH]2)cc1, the melting point was 293 °C. O=C1c2c(O)cccc2Cc2cccc(O)c21 showed a melting point of 179 °C. For COc1ccc2[nH]cc(CCNC(C)=O)c2c1, the melting point was 117 °C. Work on CC(=O)[C@H]1CC[C@H]2[C@@H]3C=CC4=CC(=O)CC[C@@]4(C)[C@@H]3CC[C@]12C yielded a melting point of 170 °C. CCCCC(C)(C)C(C)C showed a boiling point of 160 °C. Work on O=C1NCCN1 yielded a melting point of 131 °C. Compound CN(C)CC(O)c1ccc(O)c(O)c1 (stereo unspecified) has a melting point of 149 °C. Work on Cc1ccc2cccc([N+](=O)[O-])c2n1 yielded a melting point of 140 °C. C=CC(C)CCCC(C)C (stereo unspecified) showed a boiling point of 154 °C. For CC(Cl)CC(Cl)Cl (stereo unspecified), the boiling point was 152 °C. Work on O=C(O)Cc1cc(I)c(Oc2ccc(O)c(I)c2)c(I)c1 yielded a melting point of 182 °C. In the case of Nc1cccc2ncccc12, the boiling point is reported as 310 °C, the log10 vapour pressure (mmHg) is reported as -4.77 and the melting point is reported as 110 °C.

Same assay, conditions: fish
Work on CC(C)(c1cc(Br)c(O)c(Br)c1)c1cc(Br)c(O)c(Br)c1 yielded a log10 BCF of 2.43. S=C=S showed a log10 BCF of 1.29. Work on CCCCCCCCCCCC yielded a log10 BCF of 2.38 and a log10 biotransformation half-life (days) of 0.26. Compound Clc1ccc(-c2cc(Cl)c(Cl)c(Cl)c2)cc1Cl has a log10 biotransformation half-life (days) of 2.4. In the case of c1ccc(C2CCCC(C3CCCCC3)C2)cc1 (stereo unspecified), the log10 biotransformation half-life (days) is reported as 0.45. Oc1ccc(Cl)cc1Cl showed a log10 BCF of 1.53 and a log10 biotransformation half-life (days) of -0.94.
